Tests used:
BRD3(BD1) = biological target: T1, BRD3(BD1) (Homo sapiens, UniProt Q15059); assay: HTRF bromodomain selectivity profile; format: binding; conditions: Table 3 selectivity profile
T1 construct: purchased BPS Bioscience
Description: (§1) Compounds were dispensed, with 200 nL per well (1% final DMSO), from a concentration stock of 1 mM in 100% DMSO and with serial DMSO dilutions, using a Mosquito Crystal pipetting robot platform (TTP labtech). […] All HTRF reagents were purchased from CisBio Bioassays and reconstituted according to the supplier protocols. For each assay 14.7 μL of mix 1 (protein+peptide) is added in the assay wells, containing previously dispensed inhibitors, according to the final concentration and buffer described in Table 4, using a Biomek NX MC pipetting robot (Beckman). Then, 5.1 μL of mix 2 (donnor+acceptor) is added. HTRF signals were measured, after a final incubation (overnight at room temperature), using a PHERAstar FS (BMG Labtech) with an excitation filter at 337 nm and fluorescence wavelength measurement at 620 and 665 nm, an integration delay of 60 μs and an integration time of 500 μs. Results were analyzed with a two-wavelengths signal ratio: […] Percentage of inhibition was calculated using the following equation: % inhibition=[(compound signal)−(min signal)]/[(max signal)−(min signal)]*100, where ‘max signal’ is the signal ratio with the compound vehicle alone (DMSO) and ‘min signal’ the signal ratio without peptide. For IC50 measurements, values were normalized and fitted with Prism (GraphPad software) using the following equation: […] Selectivity profiles of bromodomain inhibitors were performed as described in HTRF screen section. […] HTRF detection reagents (EPIgeneous™ Binding Domain kits) were purchased from Cisbio Bioassays and used according to supplier's protocol. GST tagged bromodomain proteins were purchased from BPS Bioscience and histone peptide from Anaspec. [table]

BRD3(BD2) = biological target: T2, BRD3(BD2) (Homo sapiens, UniProt Q15059); assay: HTRF bromodomain selectivity profile; format: binding; conditions: Table 3 selectivity profile
T2 construct: purchased BPS Bioscience
T2 sequence (Q15059 306-415 limits assumed): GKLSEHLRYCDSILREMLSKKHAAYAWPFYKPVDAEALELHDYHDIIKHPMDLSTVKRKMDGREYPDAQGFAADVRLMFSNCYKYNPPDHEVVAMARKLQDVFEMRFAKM
Description: as §1

BRD2(BD1) = biological target: T3, BRD2(BD1) (Homo sapiens, UniProt P25440); assay: HTRF bromodomain selectivity profile; format: binding; conditions: Table 3 selectivity profile
T3 construct: purchased BPS Bioscience
T3 sequence (P25440 74-180 limits assumed): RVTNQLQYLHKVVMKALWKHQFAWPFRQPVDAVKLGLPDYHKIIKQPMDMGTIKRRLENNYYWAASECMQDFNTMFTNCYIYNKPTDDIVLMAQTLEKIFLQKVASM
Description: (§2) HTRF assays were performed in white 384 Well Small Volume™ HiBase Polystyrene Microplates (Greiner) with a total working volume of 20 μL. Compounds were dispensed, with 200 nL per well (1% final DMSO), from a concentration stock of 1 mM in 100% DMSO and with serial DMSO dilutions, using a Mosquito Crystal pipetting robot platform (TTP labtech). The IC50 measurements were performed in triplicates (Table 2 and 3). All HTRF reagents were purchased from CisBio Bioassays and reconstituted according to the supplier protocols. For each assay 14.7 μL of mix 1 (protein+peptide) is added in the assay wells, containing previously dispensed inhibitors, according to the final concentration and buffer described in Table 4, using a Biomek NX MC pipetting robot (Beckman). Then, 5.1 μL of mix 2 (donnor+acceptor) is added. HTRF signals were measured, after a final incubation (overnight at room temperature), using a PHERAstar FS (BMG Labtech) with an excitation filter at 337 nm and fluorescence wavelength measurement at 620 and 665 nm, an integration delay of 60 μs and an integration time of 500 μs. Results were analyzed with a two-wavelengths signal ratio: [intensity (665 nm)/intensity (620 nm)]*10^4. Percentage of inhibition was calculated using the following equation: % inhibition=[(compound signal)−(min signal)]/[(max signal)−(min signal)]*100, where ‘max signal’ is the signal ratio with the compound vehicle alone (DMSO) and ‘min signal’ the signal ratio without peptide.
(§3) Selectivity profiles of bromodomain inhibitors were performed as described in HTRF screen section. […] HTRF detection reagents (EPIgeneous™ Binding Domain kits) were purchased from Cisbio Bioassays and used according to supplier's protocol. GST tagged bromodomain proteins were purchased from BPS Bioscience and histone peptide from Anaspec.

BRD2(BD2) = biological target: T4, BRD2(BD2) (Homo sapiens, UniProt P25440); assay: HTRF bromodomain selectivity profile; format: binding; conditions: Table 3 selectivity profile
T4 construct: purchased BPS Bioscience
T4 sequence (P25440 344-453 limits assumed): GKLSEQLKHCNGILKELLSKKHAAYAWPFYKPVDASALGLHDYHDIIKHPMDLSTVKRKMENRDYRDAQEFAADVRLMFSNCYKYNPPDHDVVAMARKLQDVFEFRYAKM
Description: as §2, §3

BRD4(BD2) = biological target: T5, BRD4(BD2) (Homo sapiens, UniProt O60885); assay: HTRF bromodomain selectivity profile; format: binding; conditions: Table 3 selectivity profile
T5 construct: purchased BPS Bioscience
Description: as §2, §3

BRDT(BD1) = biological target: T6, BRDT(BD1) (Homo sapiens, UniProt Q58F21); assay: HTRF bromodomain selectivity profile; format: binding; conditions: Table 3 selectivity profile
T6 construct: purchased BPS Bioscience
Description: as §2, §3

c-Myc = assay: Western blot of c-Myc in Jurkat cells; format: cell-based, human; conditions: 24 h, same range of concentration as EC50
Description: Non-treated Jurkat cells and Jurkat cells treated during 24 h with compound of the invention 26b, or DMSO were lysed in RIPA lysis buffer (Tris HCl pH=7.5 50 mM, NaCl 150 mM, Triton 1%, SDS 0.1%, sodium deoxycholate 1%) supplemented with protease inhibitor cocktail (P8340, Sigma-Aldrich) and 1 mM PhenylMethylSulfonyl Fluoride (Sigma-Aldrich). 75 μg of protein were loaded onto 10% acrylamide SDS/PAGE and then transferred to nitrocellulose Hybond C-extra membranes, […] (GE Healthcare). The membranes were saturated with 5% (wt/vol) skim milk in TBST [Tris-buffered saline/0.1% (vol/vol) Tween 20] 1 h at room temperature and incubated with anti-myc antibody (clone 9E10, sc40 Santa Cruz) at a 1:500 dilution in 0.5% (wt/vol) skimmed milk in TBST overnight at 4° C. Membranes were then washed with TBST, incubated with an HRP-conjugated anti-mouse secondary antibody (polyclonal goat anti mouse P0447, Pierce) at a 1:20,000 dilution in TBST 1 h at room temperature. […] Quantification was performed using ImageJ software.

T1 sequence (Q15059 34-140 limits assumed): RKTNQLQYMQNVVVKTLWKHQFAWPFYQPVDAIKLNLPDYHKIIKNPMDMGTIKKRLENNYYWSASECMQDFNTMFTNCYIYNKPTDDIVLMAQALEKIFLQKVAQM

CCCCc1c(C)nc2nc(SCc3nc4c(c(=O)[nH]c(=O)n4CCCC)n3CC)nn2c1C [Compound 26b, 3-Butyl-8-(6-butyl-5,7-dimethyl-[1,2,4]triazolo[1,5-a]pyrimidin-2-ylsulfanylmethyl)-7-ethyl-3,7-dihydro-purine-2,6-dione]
IC50 (BRD3(BD1)): 62 ± 7.8 µM | IC50 (BRD3(BD2)): > 100 µM | IC50 (μM) BRD3(BD2) (BRD3(BD2)): no detectable inhibition | IC50 (BRD2(BD1)): 59 ± 2.9 µM | IC50 (BRD2(BD2)): > 100 µM | IC50 (μM) BRD2(BD2) (BRD2(BD2)): no detectable inhibition | IC50 (BRD4(BD2)): > 100 µM | IC50 (μM) BRD4(BD2) (BRD4(BD2)): no detectable inhibition | IC50 (BRDT(BD1)): > 100 µM | c-Myc down regulation (c-Myc): down regulated c-Myc

Source: US11225481B2 (Centre national de la recherche scientifique, priority 2015, dated 2022)
